Converted amounts (≈) assume the structure as drawn.
Tests used:
[1] = test system: Staphylococcus epidermidis; assay: Antimicrobial activity against methicillin-resistant Staphylococcus epidermidis 470/11 after 18 hrs by two-fold serial microdilution method; format: functional; conditions: 470/11, 18 h
[2] = test system: Staphylococcus epidermidis; assay: Antimicrobial activity against methicillin-resistant Staphylococcus epidermidis 460/11 after 18 hrs by two-fold serial microdilution method; format: functional; conditions: 460/11, 18 h
[3] = test system: Staphylococcus aureus; assay: Antimicrobial activity against methicillin-resistant Staphylococcus aureus 586/12 after 18 hrs by two-fold serial microdilution method; format: functional; conditions: 586/12, 18 h
[4] = test system: Staphylococcus epidermidis; assay: Antimicrobial activity against Staphylococcus epidermidis ATCC 12228 after 18 hrs by two-fold serial microdilution method; format: functional; conditions: ATCC 12228, 18 h
[5] = test system: Staphylococcus epidermidis; assay: Antimicrobial activity against methicillin-resistant Staphylococcus epidermidis 489/11 after 18 hrs by two-fold serial microdilution method; format: functional; conditions: 489/11, 18 h
[6] = Antiproliferative activity against human SW707 cells assessed as growth inhibition after 72 hrs by SRB method; format: functional, cell-based; conditions: Homo sapiens, SW707, 72 h
[7] = test system: BALB/3T3; assay: Antiproliferative activity against mouse BALB/3T3 cells assessed as growth inhibition after 72 hrs by SRB method; format: cell-based; conditions: BALB/3T3, 72 h
[8] = Antiproliferative activity against human HL60 cells assessed as growth inhibition after 72 hrs by MTT assay; format: functional, cell-based; conditions: HL-60, 72 h
[9] = Antiproliferative activity against human LS180 cells assessed as growth inhibition after 72 hrs by SRB method; format: functional, cell-based; conditions: Homo sapiens, LS180, 72 h
[10] = test system: Staphylococcus epidermidis; assay: Antimicrobial activity against methicillin-resistant Staphylococcus epidermidis 459/11 after 18 hrs by two-fold serial microdilution method; format: functional; conditions: 459/11, 18 h
[11] = test system: Staphylococcus aureus; assay: Antimicrobial activity against Staphylococcus aureus […] 4163 after 18 hrs by two-fold serial microdilution method; format: functional
[12] = Selectivity index, ratio of IC50 for mouse BALB/3T3 cells to IC50 for human SW707 cells; format: functional
[13] = test system: LoVo; assay: Antiproliferative activity against human LoVo cells assessed as growth inhibition after 72 hrs by SRB method; format: functional, cell-based; conditions: Homo sapiens, LoVo, 72 h
[14] = test system: HT-29; assay: Selectivity index, ratio of IC50 for mouse BALB/3T3 cells to IC50 for human HT-29 cells; format: functional
[15] = Selectivity index, ratio of IC50 for mouse BALB/3T3 cells to IC50 for human LoVo/DX cells; format: functional
[16] = test system: Staphylococcus aureus; assay: Antimicrobial activity against methicillin-resistant Staphylococcus aureus 456/11 after 18 hrs by two-fold serial microdilution method; format: functional; conditions: 456/11, 18 h
[17] = test system: Staphylococcus epidermidis; assay: Antimicrobial activity against methicillin-resistant Staphylococcus epidermidis 466/11 after 18 hrs by two-fold serial microdilution method; format: functional; conditions: 466/11, 18 h
[18] = Antiproliferative activity against human vincristine-resistant HL60/Vinc cells assessed as growth inhibition after 72 hrs by MTT assay; format: functional
[19] = test system: Staphylococcus epidermidis; assay: Antimicrobial activity against methicillin-resistant Staphylococcus epidermidis 488/11 after 18 hrs by two-fold serial microdilution method; format: functional; conditions: 488/11, 18 h
[20] = test system: Staphylococcus epidermidis; assay: Antimicrobial activity against methicillin-resistant Staphylococcus epidermidis 468/11 after 18 hrs by two-fold serial microdilution method; format: functional; conditions: 468/11, 18 h
[21] = test system: Staphylococcus aureus; assay: Antimicrobial activity against methicillin-resistant Staphylococcus aureus 537/12 after 18 hrs by two-fold serial microdilution method; format: functional; conditions: 537/12, 18 h
[22] = test system: Staphylococcus epidermidis; assay: Antimicrobial activity against Staphylococcus epidermidis ATCC 35984 after 18 hrs by two-fold serial microdilution method; format: functional; conditions: ATCC 35984, 18 h
[23] = test system: Staphylococcus aureus; assay: Antimicrobial activity against methicillin-resistant Staphylococcus aureus 452/11 after 18 hrs by two-fold serial microdilution method; format: functional; conditions: 452/11, 18 h
[24] = test system: Staphylococcus epidermidis; assay: Antimicrobial activity against methicillin-resistant Staphylococcus epidermidis 461/11 after 18 hrs by two-fold serial microdilution method; format: functional; conditions: 461/11, 18 h
[25] = test system: Staphylococcus aureus; assay: Antimicrobial activity against methicillin-resistant Staphylococcus aureus 514/11 after 18 hrs by two-fold serial microdilution method; format: functional; conditions: 514/11, 18 h
[26] = test system: Staphylococcus aureus; assay: Antimicrobial activity against methicillin-resistant Staphylococcus aureus 462/11 after 18 hrs by two-fold serial microdilution method; format: functional; conditions: 462/11, 18 h
[27] = test system: Staphylococcus aureus; assay: Antimicrobial activity against methicillin-resistant Staphylococcus aureus 585/12 after 18 hrs by two-fold serial microdilution method; format: functional; conditions: 585/12, 18 h
[28] = Antiproliferative activity against human doxorubicin-resistant LoVo/DX cells assessed as growth inhibition after 72 hrs by SRB method; format: functional, cell-based
[29] = test system: Staphylococcus aureus; assay: Antimicrobial activity against Staphylococcus aureus ATCC 29213 after 18 hrs by two-fold serial microdilution method; format: functional; conditions: ATCC 29213, 18 h
[30] = test system: Staphylococcus aureus; assay: Antimicrobial activity against methicillin-resistant Staphylococcus aureus 572/12 after 18 hrs by two-fold serial microdilution method; format: functional; conditions: 572/12, 18 h
[31] = test system: Staphylococcus aureus; assay: Antimicrobial activity against methicillin-resistant Staphylococcus aureus 522/12 after 18 hrs by two-fold serial microdilution method; format: functional; conditions: 522/12, 18 h
[32] = test system: HL-60; assay: Selectivity index, ratio of IC50 for mouse BALB/3T3 cells to IC50 for human HL60 cells; format: functional
[33] = test system: LoVo; assay: Resistance index, ratio of IC50 for human LoVo/DX cells to IC50 for human LoVo cells
[34] = Selectivity index, ratio of IC50 for mouse BALB/3T3 cells to IC50 for human LS180 cells; format: functional
[35] = test system: Staphylococcus aureus; assay: Antimicrobial activity against Staphylococcus aureus ATCC 6538 after 18 hrs by two-fold serial microdilution method; format: functional; conditions: ATCC 6538, 18 h
[36] = test system: LoVo; assay: Selectivity index, ratio of IC50 for mouse BALB/3T3 cells to IC50 for human LoVo cells; format: functional
[37] = test system: Staphylococcus aureus; assay: Antimicrobial activity against methicillin-resistant Staphylococcus aureus 573/12 after 18 hrs by two-fold serial microdilution method; format: functional; conditions: 573/12, 18 h
[38] = test system: HT-29; assay: Antiproliferative activity against human HT-29 cells assessed as growth inhibition after 72 hrs by SRB method; format: functional, cell-based; conditions: Homo sapiens, HT-29, 72 h
[39] = test system: Staphylococcus epidermidis; assay: Antimicrobial activity against methicillin-resistant Staphylococcus epidermidis 469/11 after 18 hrs by two-fold serial microdilution method; format: functional; conditions: 469/11, 18 h
[40] = test system: Staphylococcus epidermidis; assay: Antimicrobial activity against methicillin-resistant Staphylococcus epidermidis 467/11 after 18 hrs by two-fold serial microdilution method; format: functional; conditions: 467/11, 18 h
[41] = test system: Staphylococcus aureus; assay: Antimicrobial activity against Staphylococcus aureus ATCC 25923 after 18 hrs by two-fold serial microdilution method; format: functional; conditions: ATCC 25923, 18 h

## CC[C@@H](C(=O)[C@@H](C)[C@@H](O)[C@H](C)[C@@H]1O[C@@H]([C@@H](CC)C(=O)NCc2cn([C@H]3C[C@H](n4cc(F)c(=O)[nH]c4=O)O[C@@H]3CO)nn2)CC[C@@H]1C)[C@H]1O[C@]2(C=C[C@@H](O)[C@]3(CC[C@@](C)([C@H]4CC[C@](O)(CC)[C@H](C)O4)O3)O2)[C@H](C)C[C@@H]1C
[1]
  MIC: 30.2 µM (≈ 32 µg/mL)
[2]
  MIC: 30.2 µM (≈ 32 µg/mL)
[3]
  MIC: 121 µM (≈ 128 µg/mL)
[4]
  MIC: 30.2 µM (≈ 32 µg/mL)
[5]
  MIC: 30.2 µM (≈ 32 µg/mL)
[6]
  IC50: 35 µM
[7]
  IC50: 29.6 µM
[8]
  IC50: 28.7 µM
[9]
  IC50: 32.8 µM
[10]
  MIC: 30.2 µM (≈ 32 µg/mL)
[11]
  MIC: 30.2 µM (≈ 32 µg/mL)
[12]
  Selectivity Index: 0.85
[13]
  IC50: 41.2 µM
[14]
  Selectivity Index: 0.98
[15]
  Selectivity Index: 0.42
[16]
  MIC: 60.4 µM (≈ 64 µg/mL)
[17]
  MIC: 30.2 µM (≈ 32 µg/mL)
[18]
  inhibition (INH): 20%
[19]
  MIC: 121 µM (≈ 128 µg/mL)
[20]
  MIC: 60.4 µM (≈ 64 µg/mL)
[21]
  MIC: 242 µM (≈ 256 µg/mL)
[22]
  MIC: 30.2 µM (≈ 32 µg/mL)
[23]
  MIC: 60.4 µM (≈ 64 µg/mL)
[24]
  MIC: 30.2 µM (≈ 32 µg/mL)
[25]
  MIC: 242 µM (≈ 256 µg/mL)
[26]
  MIC: 60.4 µM (≈ 64 µg/mL)
[27]
  MIC: 121 µM (≈ 128 µg/mL)
[28]
  IC50: 70.4 µM
[29]
  MIC: 60.4 µM (≈ 64 µg/mL)
[30]
  MIC: 242 µM (≈ 256 µg/mL)
[31]
  MIC: 242 µM (≈ 256 µg/mL)
[32]
  Selectivity Index: 1.03
[33]
  Ratio IC50: 1.71
[34]
  Selectivity Index: 0.9
[35]
  MIC: 30.2 µM (≈ 32 µg/mL)
[36]
  Selectivity Index: 0.72
[37]
  MIC: 60.4 µM (≈ 64 µg/mL)
[38]
  IC50: 30.1 µM
[39]
  MIC: 60.4 µM (≈ 64 µg/mL)
[40]
  MIC: 60.4 µM (≈ 64 µg/mL)
[41]
  MIC: 30.2 µM (≈ 32 µg/mL)

Source: ChEMBL document CHEMBL3414487, “Synthesis and biological activity of salinomycin conjugates with floxuridine” (Eur J Med Chem, 2015)
